One may read the solubility as the concentration that dissolves in the medium under given conditions. One may read the Papp A→B as how fast a substance crosses the layer from the apical side. What is called Papp B→A is how fast a substance crosses the layer from the basolateral side. In general, pKa refers to the negative logarithm of the acid dissociation constant.

Converted amounts (≈) assume the structure as drawn. Like-named read-outs stand apart in the source and are kept apart here.

Consider 1 compound from publication PMC8780741, “Integration of In Silico, In Vitro and In Situ Tools for the Preformulation and Characterization of a Novel Cardio-Neuroprotective Compound during the Early Stages of Drug Development” (Pharmaceutics, 2022).

Series [1] can be described thus: Thermodynamic solubility, shake-flask saturation method, and dose number. The note with it: for solubility: USP buffer solution; for Do (dose number): D = 140 mg, 250 mL. Format: physicochemical. On the procedure:
For the solubility study, six buffer solutions (pH 1.2, 3.0, 4.0, 4.5, 6.8 and 7.4) were prepared following the protocols published in the USP XXXVIII, United States Pharmacopoeia, as described above.
Solubility experiments for JM-20 were carried out according to the main regulatory guidelines for biowaivers. The tests were performed at the three recommended pH values (pH 1.2, 4.5 and 6.8) as well as pH […], 4.0 and 7.4 (USP buffer formulations). The shake-flask saturation method proposed by Baka et al. was used in the solubility study and the recommendations of Avdeef et al. were followed to improve the quality of the solubility data. The temperature was regulated at 37 °C. Equilibration times were 6 h stirring + 18 h sedimentation. At the end of equilibration, the two phases were separated by careful decantation. The samples were analyzed with a Thermo Fisher UV-Vis Spectrophotometer (λmax = 262 nm). A linear range of 2–20 μg/mL was obtained (r^2 > 0.99). Once the solubility range was determined, the dose number (Do) was calculated following Equation (1) (1) Do=D/Vo/Cs where D is the highest strength or highest dose administered (mg) according to FDA or EMA criteria, Vo is the volume of water ([…]).

Details of series [2]: method as in earlier work. The note with it: pH 4.5 and 6.8, 24 h, 37 ± 1°C; cited from earlier work.
The nature of series [3]: Apparent permeability across MDCK-MDR1 monolayers. The class given is in vitro ADME, Canine. Particulars: dog, 37 °C, stirring at 50 rpm. On the procedure: MDCK (Madin–Darby Canine Kidney) cells, their transfected clone MDCK-MDR1, and Caco-2 cells were grown in the modified Dulbecco Eagle medium added with L-glutamine, fetal bovine serum and penicillin−streptomycin. The number of cells seeded in transwells with a surface area of 4.2 cm^2 depended on the cell line: 250,000 cells/cm^2 for MDCK and Caco-2 and 150,000 cells/cm^2 for MDCK-MDR1. Experiments were performed between 7 and 9 days for MDCK and MDCK-MDR1 and between 19 and 21 for Caco-2 cells after seeding. Prior to drug placement, cell monolayer integrity was assessed by measuring transepithelial electrical resistance (TEER). Transport studies were performed on an orbital shaker at 37 °C and 50 rpm. Four samples of 200 μL were taken from the receptor side at 0, 15, 30, 60 and 90 min, and two samples from the donor compartment at the beginning and end of the experiment. A standard experiment was performed with the same buffer for the apical and basolateral compartments in the apical to basolateral (A-B) and basolateral to apical (B-A) directions. The drug concentration was 100 μM in all experiments and samples were analyzed immediately by HPLC. The retention time was 2.3 min at maximum wavelengths (λmax = 260 nm). […] The lower limit of quantitation of JM-20 was adequate to interpolate the values obtained in the samples. […]

Details of series [4]: method as in earlier work. The note with it: potentiometric titration; cited from earlier work.

For `CCOC(=O)C1=C(C)NC2=C(C=Nc3ccccc3N2)C1c1ccccc1[N+](=O)[O-]` (stereo not shown) [JM-20, 3-ethoxycarbonyl-2-methyl-4-(2-nitrophenyl)-4,11-dihydro-1H-pyrido [2,3-b][1,5] benzodiazepine], the solubility in series [1] (aqueous buffer, thermodynamic from solid, buffer pH 1.2, 37 °C, shake-flask, read-out: Solubility ± SD) was found to be 9.18 ± 0.16 µg/mL (≈ 22.7 µM); in series [1] (aqueous buffer, thermodynamic from solid, buffer pH 3.5, 37 °C, shake-flask, read-out: Solubility ± SD) it was 12.7 ± 0.83 µg/mL (≈ 31.5 µM); in series [1] (aqueous buffer, thermodynamic from solid, buffer pH 4.0, 37 °C, shake-flask, read-out: Solubility ± SD) it was 25.4 ± 0.66 µg/mL (≈ 62.8 µM); in series [1] (aqueous buffer, thermodynamic from solid, buffer pH 4.5, 37 °C, shake-flask, read-out: Solubility ± SD), 30.8 ± 1.29 µg/mL (≈ 76.3 µM); in series [1] (aqueous buffer, thermodynamic from solid, buffer pH 6.8, 37 °C, shake-flask, read-out: Solubility ± SD), 11.3 ± 0.69 µg/mL (≈ 27.9 µM); in series [1] (aqueous buffer, thermodynamic from solid, buffer pH 7.4, 37 °C, shake-flask, read-out: Solubility ± SD), 12.6 ± 0.36 µg/mL (≈ 31.3 µM). Further, the solubility in series [1] (pH 1.2, acidic pH, read-out: Solubility at acidic pH (abstract)) came to 9.18 ± 0.16 µg/mL (≈ 22.7 µM). Moreover, the “Dose number (Do)” value in series [1] (at the different pH values, dose 140 mg) was “greater than 1”. Besides, in series [1] (calculated with the lowest aqueous solubility), the “D0 (dose number)” value is given as 61. The “Do (dose number)” value in series [1] (pH 1.2) is given as 61.00; in series [1] (pH 3.5) it was 44.03; in series [1] (pH 4.0), 22.06; in series [1] (pH 4.5), 18.16; in series [1] (pH 6.8), 49.56; in series [1] (pH 7.4) it was 44.30. For the same compound, the “Qualitative stability in aqueous medium” value in series [2] is reported as “some degradation”. Moreover, the Papp A→B at 90 min, 100 µM in series [3] was 21.7 ± 2.2 ×10⁻⁶ cm/s. Also, in series [3], the Papp B→A at 90 min, 100 µM was 9.6 ± 0.5 ×10⁻⁶ cm/s. In series [4], the pKa was 5.25.
